25 compounds from ChEMBL document CHEMBL1201862, “PubChem BioAssay data set” (2004) can be followed below.

Some test systems named below: XF498; DLD-1; DMS-273; KM-20L2; HOP-18; M19-MEL; SNB-78; LXFL 529; RXF 631.
What all share (assay): NCI tumour cell line growth inhibition, 48 h

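A five-concentration, 48-hour dose response in 96-well plates underlies each endpoint, interpolated linearly between surrounding concentrations. Abbreviation: GI50, concentration required for 50% inhibition of growth.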 Active and inactive are the calls of the source. Rule as the data show it: active = GI50 up to about 1.1 µM and inactive = higher. Where a SMILES comes first, the peptide text is derived from it. Square brackets hold non-standard residues; d marks the D form. Peptide text beside a SMILES is read from it.

With `CCS(=O)(=O)Nc1ccc(Nc2c3ccccc3nc3ccccc23)c(OC)c1`, the GI50 was 0.0223 µM (active) in the experiment on XF498; 2.56 µM (inactive) in the experiment on DLD-1; 0.0324 µM (active) with DMS-273; 1.43 µM (inactive) with KM-20L2; 0.809 µM (active) in the experiment with HOP-18; 1.64 µM (inactive) with M19-MEL. Moreover, the GI50 in the experiment with SNB-78 was 4.89 µM (inactive).

With `O=C(CC1(O)C(=O)Nc2c(Cl)cccc21)c1ccccc1` (stereo unspecified), the GI50 in the experiment with XF498, in the experiment on DLD-1, in the experiment on DMS-273, in the experiment on KM-20L2, with LXFL 529 and in the experiment on HOP-18 was > 100 µM (inactive) throughout. Further, the GI50 in the experiment with SNB-78 is > 100 µM (inactive).

In the case of `COc1cccc(/C=C2\CCC(C)(CN(C)C)C2=O)c1` (stereo unspecified), the GI50 in the experiment on XF498 was > 100 µM (inactive); in the experiment on DLD-1, 62.4 µM (inactive); with DMS-273, 70.5 µM (inactive); in the experiment on KM-20L2 it was 23 µM (inactive); in the experiment with HOP-18 it was > 100 µM (inactive); in the experiment on M19-MEL it was 98.2 µM (inactive). Moreover, the GI50 in the experiment on SNB-78 is > 100 µM (inactive).

For `CN1C(c2ccccc2)CC(=Nc2ccccc2)CC1c1ccccc1` (stereo unspecified), the GI50 was 10.6 µM (inactive) with DLD-1; 20.5 µM (inactive) in the experiment on RXF 631; 8.79 µM (inactive) with DMS-273; 13.3 µM (inactive) in the experiment with KM-20L2; 4.46 µM (inactive) in the experiment with LXFL 529; 4.58 µM (inactive) with M19-MEL. In the experiment with SNB-78, the GI50 is 15 µM (inactive).

As to `CN(C)CC1CCC/C1=N/OC(=O)c1ccccc1` (stereo unspecified), the GI50 with DLD-1, with RXF 631, with DMS-273, in the experiment on KM-20L2, in the experiment on LXFL 529 and in the experiment with HOP-18 was > 100 µM (inactive) in each case. The GI50 in the experiment on M19-MEL and in the experiment on SNB-78 was > 100 µM (inactive) in each case.

As to `CN(C)c1cccc(OC(=O)NCCCl)c1`, the GI50 with XF498, with DLD-1, with DMS-273, in the experiment on HOP-18 and in the experiment on M19-MEL was > 100 µM (inactive) in each case.

On to `Cc1cc(/N=N/c2ccc(/N=N/c3c(O)c(S(=O)(=O)O)cc4cc(S(=O)(=O)O)ccc34)cc2C)ccc1/N=N/c1ccc2cc(S(=O)(=O)O)cc(S(=O)(=O)O)c2c1`, for which the GI50 in the experiment with XF498 was > 73.5 µM (inactive); in the experiment with DLD-1 it was > 100 µM (inactive); in the experiment on DMS-273 it was 98.4 µM (inactive); in the experiment with KM-20L2, 54.8 µM (inactive); in the experiment with HOP-18 it was > 100 µM (inactive); in the experiment on M19-MEL, > 100 µM (inactive). Moreover, the GI50 in the experiment on SNB-78 is > 100 µM (inactive).

As to `C/C(=N\Nc1nnc(S)n1N)c1c(O)cc(C)oc1=O`, the GI50 in the experiment with DLD-1, in the experiment with KM-20L2, in the experiment with LXFL 529, with HOP-18, in the experiment with M19-MEL and in the experiment with SNB-78 was > 100 µM (inactive) in each case.

For the compound `N#CNCC(COCc1ccccc1)c1ccccc1` (stereo unspecified), the GI50 in the experiment with XF498 is 47.6 µM (inactive); in the experiment on RXF 631, > 100 µM (inactive); in the experiment on DMS-273 it was 94.4 µM (inactive); with KM-20L2, > 100 µM (inactive); in the experiment on HOP-18, > 100 µM (inactive); with M19-MEL, > 100 µM (inactive).

`O=C(CCN(C(=O)O)S(=O)(=O)c1ccc(NC(=O)c2ccccc2)cc1)Nc1ccccc1`: the GI50 in the experiment with XF498 was > 100 µM (inactive); in the experiment with DLD-1 it was > 79.8 µM (inactive); with RXF 631, > 100 µM (inactive); in the experiment with DMS-273, > 65.3 µM (inactive); in the experiment on KM-20L2, > 100 µM (inactive); with LXFL 529, > 100 µM (inactive). The GI50 was > 17.1 µM (inactive) with HOP-18, > 76.9 µM (inactive) in the experiment with M19-MEL and > 100 µM (inactive) in the experiment on SNB-78.

Regarding `CC1=NN2C(c3ccc([N+](=O)[O-])cc3)=CSC2=NC(C)(C)C1`, the GI50 in the experiment with XF498, in the experiment on DLD-1, in the experiment on RXF 631, in the experiment with DMS-273, with KM-20L2 and in the experiment on LXFL 529 was > 100 µM (inactive) each time. For the same compound, the GI50 in the experiment with HOP-18, in the experiment with M19-MEL and in the experiment with SNB-78 was > 100 µM (inactive) in each case.

Turning to `O=C(CCN1CCOCC1)C(=Cc1ccccc1)C(=O)CCN1CCOCC1`, the GI50 in the experiment on XF498 is 4.29 µM (inactive); in the experiment on DLD-1, 1.82 µM (inactive); in the experiment on DMS-273, 8.65 µM (inactive); in the experiment on KM-20L2 it was 9.16 µM (inactive); with HOP-18, 16.8 µM (inactive); in the experiment with M19-MEL it was 2.83 µM (inactive). Further, the GI50 with SNB-78 is 0.164 µM (active).

For the compound `CN(/N=N/c1[nH]cnc1C(N)=O)C1CCCCC1`, the GI50 with XF498 was 75.7 µM (inactive); in the experiment with DLD-1, > 100 µM (inactive); in the experiment with DMS-273, 41.2 µM (inactive); with KM-20L2 it was 81.3 µM (inactive); with LXFL 529 it was > 100 µM (inactive); in the experiment on M19-MEL, > 100 µM (inactive). The GI50 in the experiment on SNB-78 is > 100 µM (inactive).

In the case of `C/C=C/CC(S(=O)(=O)c1ccccc1)S(=O)(=O)c1ccccc1`, the GI50 in the experiment with XF498, in the experiment with DLD-1, in the experiment with DMS-273, in the experiment on KM-20L2 and in the experiment on HOP-18 was > 100 µM (inactive) throughout.

On to `CCOC(=O)C(Sc1ccccc1)c1c(OC)cc(=O)oc1/C=[N+](/[O-])c1ccc(N(C)C)cc1` (stereo unspecified), for which the GI50 in the experiment with XF498 was 14.6 µM (inactive); with DLD-1, 28.1 µM (inactive); with DMS-273, 14 µM (inactive); with KM-20L2 it was 31.8 µM (inactive); with LXFL 529, 14.1 µM (inactive); with HOP-18 it was 17.1 µM (inactive). The GI50 with M19-MEL was 19.8 µM (inactive); in the experiment on SNB-78 it was 27.1 µM (inactive).

On to `C=C1CCC2C(C)(CO)C(O)CCC2(C)C1CC(O)/C(=C/CO)C(=O)O` (stereo unspecified), for which the GI50 in the experiment on DLD-1, in the experiment with RXF 631, with DMS-273, with KM-20L2, with LXFL 529 and in the experiment on HOP-18 was > 100 µM (inactive) in each case. For the same compound, the GI50 with M19-MEL and in the experiment on SNB-78 was > 100 µM (inactive) throughout.

With `NC(=O)c1ncn(CCN2CCN(C(=O)NCCCCCCNC(=O)N3CCN(CCn4cnc(C(N)=O)c4N)CC3)CC2)c1N`, the GI50 in the experiment with XF498, in the experiment with DLD-1, in the experiment with RXF 631, in the experiment on DMS-273, in the experiment on KM-20L2 and in the experiment on LXFL 529 was > 100 µM (inactive) in each case. In addition, the GI50 in the experiment on HOP-18 and in the experiment with SNB-78 was > 100 µM (inactive) throughout.

Take `CC1=C(C(=O)Nc2ccccc2)C(c2ccccc2Cl)C(C(=O)Nc2ccccc2)=C(C)N1`: the GI50 is 35.9 µM (inactive) in the experiment with DLD-1; 36.1 µM (inactive) in the experiment on RXF 631; 20.8 µM (inactive) in the experiment on DMS-273; 22.2 µM (inactive) in the experiment with KM-20L2; 17.6 µM (inactive) in the experiment with LXFL 529; 21.9 µM (inactive) in the experiment with HOP-18. Also, the GI50 in the experiment on M19-MEL is 19.8 µM (inactive).

As for `CC(C)Cc1ccc(C(C)/C=C2\CCC(CN3CCOCC3)C2=O)cc1` (stereo unspecified), the GI50 in the experiment with XF498 was 16.4 µM (inactive); in the experiment on DLD-1, 2.71 µM (inactive); in the experiment on RXF 631 it was 18.1 µM (inactive); in the experiment on KM-20L2, 16.3 µM (inactive); in the experiment with LXFL 529, 1.64 µM (inactive); in the experiment with HOP-18 it was 7.87 µM (inactive). Moreover, the GI50 in the experiment with M19-MEL was 10.2 µM (inactive); in the experiment on SNB-78, 20.9 µM (inactive).

As to `O=C1C(=O)N(c2ccc(Cl)c(Cl)c2)C(=O)C(=O)C1c1nc2ccccc2s1`, the GI50 is > 100 µM (inactive) with DLD-1; > 100 µM (inactive) in the experiment on DMS-273; > 100 µM (inactive) with KM-20L2; > 100 µM (inactive) in the experiment on LXFL 529; 21.8 µM (inactive) with HOP-18; > 100 µM (inactive) in the experiment on M19-MEL. The GI50 with SNB-78 was > 100 µM (inactive).

As for `O=C(NC/C=C/CO)c1ccccc1`, the GI50 in the experiment with XF498, in the experiment with DLD-1, in the experiment on DMS-273, in the experiment on KM-20L2, with HOP-18 and with M19-MEL was > 100 µM (inactive) in each case. In the experiment on SNB-78, the GI50 was > 100 µM (inactive).

As to `O=C(O)c1cc2c(ncc3c(=O)n(-c4ccccc4)[nH]c32)s1`, the GI50 with XF498, with DLD-1, with DMS-273, in the experiment on KM-20L2, with LXFL 529 and with HOP-18 was > 100 µM (inactive) in each case. In the experiment on M19-MEL, the GI50 was > 100 µM (inactive).

Consider `C[Si](C)(C)[C@@]1([Se]c2ccccc2)CC[C@@H]1C(=O)c1ccccc1`, for which the GI50 with DLD-1 was 77.4 µM (inactive); in the experiment with RXF 631, > 100 µM (inactive); in the experiment on DMS-273, 59.3 µM (inactive); with KM-20L2, 71.8 µM (inactive); with LXFL 529 it was 65.6 µM (inactive); in the experiment with M19-MEL it was 32.5 µM (inactive). Moreover, the GI50 in the experiment on SNB-78 was > 100 µM (inactive).

For the compound `CC(C)C[C@H](NC(=O)[C@H](CC(C)C)NC(=O)[C@@H](Cc1c[nH]c2ccccc12)NC(=O)[C@H](Cc1ccccc1)NC(=O)[C@@H](Cc1c[nH]c2ccccc12)NC(=O)[C@H](CCC(N)=O)NC(=O)[C@@H](CCC(N)=O)NC(=O)[C@@H]1CCCN1C(=O)[C@@H](CCCCN)NC(=O)[C@H]1CCCN1C(=O)[C@H](N)CCCN=C(N)N)C(N)=O` (H-[dR][dP][dK]P[dQ]Q[dW]F[dW]LL-NH2), the GI50 with XF498, in the experiment with DLD-1, in the experiment with DMS-273, in the experiment with KM-20L2, in the experiment on HOP-18 and with M19-MEL was > 100 µM (inactive) each time. Besides, the GI50 with SNB-78 was > 100 µM (inactive).

As for `CC1NC(=O)CNC(=O)CNC(=O)C(Cc2ccc(O)cc2)NC(=O)C(C(C)C)NC(=O)C(C)NC1=O` (stereo unspecified) (cyclo(GGAAVY); configuration not given here), the GI50 was > 100 µM (inactive) in the experiment on XF498; > 100 µM (inactive) in the experiment with DLD-1; > 100 µM (inactive) in the experiment with DMS-273; 30.1 µM (inactive) in the experiment on HOP-18; > 100 µM (inactive) with M19-MEL.
